Results from patent publication US20060281806A1, “Treatment and inhibition of disease conditions using flexible heteroarotinoids” (priority 2005, published 2006).
“Also recorded” adds a separate entry of the source.

How the values were obtained:
[1] = tested on: SW962 vulvar carcinoma cultures; assay: Annexin-V-Fluos apoptosis assay (flow cytometry); assay type: cell-based; conditions: 10 μM; same concentration range as 4-HPR
Description: SW962 vulvar carcinoma cultures were treated with 10 μM of the indicated retinoid or the same volume of solvent. At the specified times, the cultures were labeled with Annexin-V-Fluos and propidium iodide (PI), and the number of apoptotic cells was quantified using dual-laser flow cytometric analysis.

[2] = tested on: Raldh2 −/− embryos; assay: Rescue of Raldh2 −/− embryos and teratogenesis; assay type: in vivo, mouse; conditions: for No. of −/− rescued / No. of −/− unrescued / Teratogenesis (no. of embryos): E10.25 embryos
Description: Dosages varied from 0.025 to 25 mg/kg.

[3] = tested on: human Caki renal cancer xenografts; assay: Caki renal cancer xenograft model; assay type: in vivo, mouse
Description: FIG. 12. Various Xenograft tumors stained with CD34 antibodies (brown) to identify endothelium. The B16 mouse melanoma cell line was established as a syngeneic tumor in an immunocompetent mouse model and the human Caki renal cancer and A2780 ovarian xenograft tumors in immunocompromised mice. The treated mice were gavaged with 60 mg/kg/day SHetA2 and the untreated were gavaged with solvent only. The tumors were excised and sections were stained with the anti-CD34 antibody to detect endothelial cells (brown stain).
FIG. 20. Mice harboring Caki renal cancer xenografts were treated with 60 mg/kg/day SHetA2 or PEG400 vehicle for 15 days. After another 15 days of growth, the tumors were removed, fixed, embedded and sections. Sections were stained with PAS to identify glycoproteins and lysosomes. The untreated tumor is on the left and the treated tumor is on the right.
Survival was the primary endpoint of those studies. […] Tumor growth was the primary endpoint of the renal cancer study.

[4] = tested on: ovarian carcinoma organotypic cultures; assay: Organotypic culture model of ovarian tumors; assay type: cell-based, human; conditions: 1 μM retinoid in media; 3, 7 or 14 days
Description: FIG. 17. Retinoid effects on ovarian carcinoma organotypic cultures. Organotypic cultures of OVCAR-3 (A, B, E, F, I and J), Caov-3 (C and G), SK-OV-3 (D and H), and O2 (K and L) were grown in the absence (−, top row and K) or presence (+, middle row and I, J and L) of retinoid HetA4 at a concentration of 1 μM in the media. All sections were stained with H&E except for I, which was stained with PAS to detect glycoproteins and glandular differentiantion, and J, which was stained with the TUNEL assay to detect apoptosis. All magnifications are 40×.
To test our hypotheses, we evaluated the effects of clinically achievable concentrations of 4-HPR and Flex-Hets on growth, differentiation and apoptosis in ovarian tissue. A series of compounds with a variety of receptor activation profiles were evaluated. In order to evaluate therapeutic effects, we developed an organotypic culture model of ovarian tumors by growing established cell lines and primary cultures inside collagen gels. Monolayer cultures of cells are not accurate representations of in vivo tissue because they lack the types of interactions that cells have with other cells and with the extracellular matrix in vivo. These interactions are known to influence gene expression and thus the constitution and behavior of cells. In our organotypic model, the growth of tumor cells inside the collagen allows a representation of tumors that have invaded stromal tissue. In the presence of fibroblasts, established cell lines and primary cultures of ovarian cancer formed colonies inside the collagen, while normal or benign ovarian epithelial cells remained as single cells inside the collagen. Human ovarian cancer cell lines (OVCAR-3, Caov-3, SK-OV-3, A2780, UCI 101) and primary human cultures (borderline ovarian tumor (O1), serous papillary tumor (O2), benign ovarian cyst (O3)) were cultured inside and on top of a collagen gel seeded with 3T3 fibroblasts for one week. After further incubation in the presence or absence of 1 μM retinoid (media concentration) for 3, 7 or 14 days, cultures were fixed and sectioned for immunohistochemical analysis.

[5] = tested on: OVCAR-3 xenograft tumors; assay: OVCAR-3 xenograft tumor animal model, tumor growth; assay type: in vivo, mouse; conditions: 10 mg/kg/day by gavage, 5 days/week, 4 weeks; t-test on day 29
Description: Groups of 5 mice bearing OVCAR-3 xenografted tumors were gavaged daily with the indicated drugs in sesame oil (▪ closed square) or with sesame oil alone (∘ open circle). Tumor volumes were measured in 3 dimensions with calipers weekly. Each data point represents the average and standard error of the tumor volumes on the indicated treatment day relative to the tumor volume on day zero. Nu/nu mice were injected subcutaneously with one million OVCAR-3 cells and arbitrarily divided into five groups of six mice each. After three weeks of tumor growth, the animals were gavaged with sesame oil, 10 mg/kg/day 4-HPR, or the indicated Het five times per week for four weeks and the tumors were measured once per week. The tumor sizes were averaged and divided by the average size for each group on the day that treatment was initiated (day 0).
The OVCAR-3 cultures were maintained in RPMI media supplemented with 10% fetal bovine serum. All animal experimentation described in this manuscript was conducted in accord with accepted standards of humane animal care. Twenty-five female NU/NU CD-1 female mice (Charles Rivers Laboratories) were housed in a laminar flow room under sterile conditions at 83-85° F. The mice were quarantined for one week prior to the beginning of the study and were allowed access to autoclaved food (Purina 5001 mouse/rat sterilizable diet, St. Louis, Mo.) and water ad libitum. OVCAR-3 cells in log phase growth were harvested by trypsinization, resuspended in RPMI culture medium, and centrifuged at 3,000 rpm for 10 min. The pellets were resuspended in RPMI culture medium at a concentration of 7×10^6 cells/ml before implantation into mice. Animals were injected with 3.5×10^6 cells into the right scapular region with a 24-gauge needle/1 cc tuberculin syringe. Twenty-four hours after tumor implantation, animals were randomized into 5 groups of 5 animals each.
The Hets SHet50, SHetA2 and SHetA4 were synthesized and their receptor specificity determined as previously described (17,19). The 4-HPR compound was a gift from R.W. Johnson Pharmaceutical Research Institute, Raritan, N.J. All retinoids were dissolved in super refined sesame oil (Croda, Inc., Parsippany, N.J.) and stored at −80° C. Since the retinoids are light sensitive, all manipulations involving retinoids were performed under subdued lighting. […] Tumors were measured with calipers weekly, and tumor volumes were calculated using the formula: volume=length×width×height. Tumor growth was determined by the dividing the volume of the tumor at each weekly measurement by the volume on the first day of treatment. Animal weights and clinical signs of overall health status and cutaneous toxicities were recorded weekly.

[6] = dose 2.5 mg/kg oral to pregnant mice
[7] = dose 10 mg/kg oral to pregnant mice
[8] = dose 25 mg/kg oral to pregnant mice

`CC1(C)CC(C)(C)c2cc(NC(=S)Nc3ccc([N+](=O)[O-])cc3)ccc2S1` [SHetA2] was tested, and the “induction of apoptosis (Annexin-V-Flous assay)” value [1] was “induced apoptosis”, the “rescue of Raldh2 −/− embryos (phenotype)” value ([2]; 2.5 mg/kg to pregnant mothers) was “no rescue” and the “rescue of Raldh2 −/− embryos (phenotype)” value ([2]; 10 or 25 mg/kg to pregnant mothers) was “no rescue”. The teratogenesis in litters ([2]; any dosage (2.5, 10, 25 mg/kg)) was “no teratogenesis was observed”, the “No. of −/− rescued” value [2, 6] was 0 and the “No. of −/− unrescued” value [2, 6] was 1. The “Teratogenesis (no. of embryos)” value [2, 6] was 0, the “No. of −/− rescued” value [2, 7] was 0 and the “No. of −/− unrescued” value [2, 7] was 5. For the same compound, the “Teratogenesis (no. of embryos)” value [2, 7] was 0, the “No. of −/− rescued” value [2, 8] was 0 and the “No. of −/− unrescued” value [2, 8] was 1. For the same compound, the “Teratogenesis (no. of embryos)” value [2, 8] was 0, the tumor growth ([3]; renal cancer model, oral 60 mg/kg/day) was “decreased tumor growth” and the “PAS stain: general glycoprotein expression and lysosomal staining” value ([3]; renal xenograft tumors, 60 mg/kg/day for 15 days, versus untreated tumors) was “increase in general glycoprotein expression and lysosomal staining”. For the same compound, the “development of blood vessels inside tumors (anti-CD34 staining)” value ([3]; renal, oral 60 mg/kg/day) was “inhibited the development of blood vessels”, the “induction of apoptosis (TUNEL) in organotypic cultures” value [4] was “Apoptosis was induced; also recorded: highest level of apoptosis” and the “regulation of growth, differentiation and apoptosis, rank among eleven retinoids” value [4] was “most potent regulator of growth, differentiation and apoptosis”. The “growth of xenograft tumors versus sesame oil control” value [5] was “significantly inhibited the growth; also recorded: significantly less”.
